Experimental findings from patent US11976280B2, “SMAC/Diablo inhibitors useful for treating cancer” (THE NATIONAL INSTITUTE FOR BIOTECHNOLOGY IN THE NEGEV LTD., priority 2017, dated 2024) are described below.

Non-standard residues stand in square brackets, D forms with d. No end group written: not given here. Dmt = Cc1cc(O)cc(C)c1C[C@H](N)C(=O)O; Orn = NCCC[C@H](N)C(=O)O; d = 2'-deoxy (DNA); m = 2'-O-methyl; r = 2'-OH (RNA)

The subject of data set [1] is A549 cells. Put plainly: SRB cell growth of A549 cells treated with peptide conjugates (Table 8). In kind it is cell-based, human. The conditions noted are these: 48 h in serum (10%) medium or 24 h serum-free, mean±SD (n=3). The procedure: A549 cells were seeded in 96-well plate (5000 cells/well). After 24 h cells were incubated with each of the examined peptides at a concentration of 5, 10, or 30 μM for 48 h in a serum (10%) containing medium or for 24 h in a serum-free medium. Then, cells were washed with PBS, fixed with 10% trichloroacetic acid, and analyzed for cell growth using the SRB method described herein above. Cell growth with no addition of a peptide was taken as a control (100% cell growth). Table 8 presents the cell growth in the presence of the peptide as % of control. Results are the mean±SD (n=3).

For a further data set, the target named is T1, SMAC/Diablo (Homo sapiens, UniProt Q9NR28).
T1 sequence (Q9NR28 22-239): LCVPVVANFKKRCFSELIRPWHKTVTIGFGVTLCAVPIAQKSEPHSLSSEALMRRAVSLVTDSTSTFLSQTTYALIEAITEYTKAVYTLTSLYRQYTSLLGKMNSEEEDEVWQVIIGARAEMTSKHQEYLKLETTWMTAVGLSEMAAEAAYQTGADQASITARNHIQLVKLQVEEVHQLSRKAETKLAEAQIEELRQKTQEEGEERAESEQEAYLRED
Description: Peptide array after pre-incubation of SMAC/Diablo with free peptide. Type of data set: binding. The conditions noted are these: for SMAC/Diablo interaction with the corresponding array-bound peptide: SMAC 0.8 μM pre-incubated with free peptide 2.4 μM. The procedure: The glass-bound peptide array described hereinabove was used. SMAC/Diablo (0.8 μM) was incubated with each of the peptides—2C18 (2.4 μM) and 1G12 (2.4 μM) for 2 hr at 24° C. and then incubated with the peptide array for 4 h at 4° C. Then the slides were washed and SMAC/Diablo antibodies (1:2000) were added, followed by incubation with HRP-conjugated anti-mouse IgG after which chemiluminescent spots were detected. Corresponding glass-bound peptide array incubated overnight with 0.8 μM free SMAC/Diablo, blotted with the same concentration of SMAC/Diablo antibodies followed by incubation with HRP-conjugated anti-mouse IgG served as a control. […] This is indicated by the decreased intensity or disappearance of chemiluminescence in the peptide spot position compared to the control (FIG. 16 and FIG. 17, respectively). Moreover, pre-incubation of SMAC/Diablo with peptide 2C18 decreased SMAC/Diablo interaction with the array-bound peptides 1M17 and 1N23 derived from Nuclear receptor subfamily 4 group A member 1 Protein (NR4A1) and peptide 1K20 derived from TNF receptor associated factor 2 Protein (TRAF2) (FIG. 16B, eliminated spots are circled).

Data set [2] concerns A549 cells. Put plainly: SRB cell growth assay, si-hSMAC B-D and 2′-O-Me modified siRNAs. Type of data set: cell-based, human. The conditions noted are these: 30 and 50 nM. The protocol: The siRNAs were synthesized by Genepharma (Suzhou, China). Cells were seeded (150,000 cells/well) on 6-well culture dishes to 40-60% confluence and transfected with 10-100 nM si-NT or si-hSMAC/Diablo using the JetPRIME transfection reagent (Illkirch, France), according to the manufacturers' instructions.
Twenty-four hours post-transfection with si-NT or si-hSMAC, cells (10,000/well) were counted and seeded in 96-well plates. After additional 48, 72 or 96 hours, the cells were washed with PBS, fixed with 10% trichloroacetic acid, and stained with SRB. SRB was extracted from the cells using 100 mM Tris base and absorbance at 510 nm was determined using an Infinite M1000 plate reader (Tecan, Männedorf, Switzerland).
si-hSMAC-A and si-hSMAC-B were modified by 2′-O methylation (2′-O Me) to form si-hSMAC-A1, si-hSMAC-A2 si-hSMAC-A3 si-hSMAC-A4 si-hSMAC-B1 si-hSMAC-B2 si-hSMAC-B3 and si-hSMAC-B4 described hereinabove. The effect of these modified forms on SMAC/Diablo expression and on cell proliferation was examined using 30 and 50 nM of each inhibitory RNA molecule in the lung cancer line A549.

Where [3] appears, read: pre-incubation with free peptide 2.4 μM.

“1G12-nuCPP: peptide conjugate targeted to nucleus, SEQ ID NO:70 (LIRKNRMALFQQLTCVLPILDNLLKR[dR]RK)”: the “Cell growth, % of control” value was 109 ± 0.013 % of control with A549 cells [1] (peptide 5 μM), 76 ± 0.024 % of control in the data set on A549 cells [1] (peptide 10 μM) and 39 ± 0.013 % of control with A549 cells [1] (peptide 30 μM).
In the same order, the values of “1H13-mtCPP-NH2: peptide conjugate targeted to mitochondria, SEQ ID NO:73 (SGCAFLSVKKQFEELTLGEFLKLD[dR][Dmt][Orn]F-NH2)” are 85 ± 0.022 % of control, 60 ± 0.018 % of control and 49 ± 0.014 % of control.
Regarding “1H13-nuCPP: peptide conjugate targeted to nucleus, SEQ ID NO:69 (SGCAFLSVKKQFEELTLGEFLKLDR[dR]RK)”, the “Cell growth, % of control” value is listed as 92 ± 0.018 % of control in the data set on A549 cells [1] (peptide 5 μM), 57 ± 0.013 % of control with A549 cells [1] (peptide 10 μM) and 30 ± 0.009 % of control with A549 cells [1] (peptide 30 μM).
In the same order, the values of “ANT-2C18 (MRQIKIWFQNRRMKWKVRFITKIWHPNISSVTGAICLDILK)” are 127 ± 0.006 % of control, 145 ± 0.0162 % of control and 97 ± 0.011 % of control.
LIRKNRMALFQQLTCVLPILDNLLK [1G12]: the “SMAC/Diablo interaction with the corresponding array-bound peptide” value with SMAC/Diablo is listed as “significantly decreased or even prevented”. In addition, the “SMAC/Diablo interaction with array-bound 1G12, 1G13, 1H13 (BIRC5) and 2D9 (MAML2)” value with SMAC/Diablo (setting [3]) was “significantly reduced”.
For the substance “TF-1G12: peptide conjugate targeted to cytosol, SEQ ID NO:76 (HAIYPRLIRKNRMALFQQLTCVLPILDNLLK; not fully specified)”, the “Cell growth, % of control” value is given as 99 ± 0.004 % of control in the data set with A549 cells [1] (peptide 5 μM), 98 ± 0.005 % of control in the data set on A549 cells [1] (peptide 10 μM) and 99 ± 0.005 % of control in the data set with A549 cells [1] (peptide 30 μM).
For the substance VRFITKIWHPNISSVTGAICLDILK [2C18], in the data set with SMAC/Diablo, the “SMAC/Diablo interaction with the corresponding array-bound peptide” value is given as “significantly decreased or even prevented”. Also, the “SMAC/Diablo interaction with array-bound peptides 1M17, 1N23 (NR4A1) and 1K20 (TRAF2)” value with SMAC/Diablo (setting [3]) is given as “decreased”.
Turning to “mtCPP-2C18: peptide conjugate targeted to mitochondria, SEQ ID NO:74 ([dR][Dmt][Orn]FVRFITKIWHPNISSVTGAICLDILK)”, the “Cell growth, % of control” value is 89 ± 0.005 % of control in the data set on A549 cells [1] (peptide 5 μM), 74 ± 0.004 % of control in the data set with A549 cells [1] (peptide 10 μM) and 59 ± 0.004 % of control with A549 cells [1] (peptide 30 μM).
In the case of “nuCPP-1G12: peptide conjugate targeted to nucleus, SEQ ID NO:71 (R[dR]RKLIRKNRMALFQQLTCVLPILDNLLK)”, the “Cell growth, % of control” value with A549 cells [1] (peptide 5 μM) is reported as 96 ± 0.012 % of control; in the data set with A549 cells [1] (peptide 10 μM), 72 ± 0.01 % of control; in the data set with A549 cells [1] (peptide 30 μM) it was 66 ± 0.009 % of control.
As to “si-hSMAC-A1: si-hSMAC-A with 2′-O-Me at sense positions 5, 10, 16, 21 (SEQ ID NO:28) and antisense 6, 12, 19 (SEQ ID NO:29) (sense AAGCGGUGUUUCUCAGAAUUGTT; antisense AACAAUUCUGAGAAACCCGCTT; sense: sugars from the 5' end rrrrmrrrrmrrrrrmrrrrmdd, backbone not given here; antisense: sugars from the 5' end rrrrrmrrrrrmrrrrrrmrdd, backbone not given here)”, the “reducing cell proliferation, ranking among modified molecules” value in the data set with A549 cells [2] is “most active in reducing cell proliferation”.
The same measure, in the same setting: for “si-hSMAC-A4: si-hSMAC-A with 2′-O-Me at sense positions 3, 6, 11, 21 (SEQ ID NO:34) and antisense 6, 19 (SEQ ID NO:35) (sense AAGCGGUGUUUCUCAGAAUUGTT; antisense AACAAUUCUGAGAAACCCGCTT; sense: sugars from the 5' end rrmrrmrrrrmrrrrrrrrrmdd, backbone not given here; antisense: sugars from the 5' end rrrrrmrrrrrrrrrrrrmrdd, backbone not given here)” the value was “most active in reducing cell proliferation”.
In the case of “si-hSMAC-B2: si-hSMAC-B with 2′-O-Me at sense positions 4, 9, 13, 17 (SEQ ID NO:38) and antisense 6, 12, 18 (SEQ ID NO:39) (sense GCAGAUCAGGCCUCUAUAATT; antisense UUAUAGAGGCCUGAUCUGCTT; sense: sugars from the 5' end rrrmrrrrmrrrmrrrmrrdd, backbone not given here; antisense: sugars from the 5' end rrrrrmrrrrrmrrrrrmrdd, backbone not given here)”, the “reducing cell proliferation, ranking among modified molecules” value in the data set on A549 cells [2] is “most active”.
Same read-out and setting: for “si-hSMAC-B3: si-hSMAC-B with 2′-O-Me at sense positions 6, 10, 15 (SEQ ID NO:40) and antisense 2, 9, 17 (SEQ ID NO:41) (sense GCAGAUCAGGCCUCUAUAATT; antisense UUAUAGAGGCCUGAUCUGCTT; sense: sugars from the 5' end rrrrrmrrrmrrrrmrrrrdd, backbone not given here; antisense: sugars from the 5' end rmrrrrrrmrrrrrrrmrrdd, backbone not given here)” the value was “most active”.
